Assay: Solubility in water
Assay type: physicochemical
Conditions: at pH about 5

Structure (SMILES): CC[C@H](C)[C@H](NC(=O)[C@H](CCC(=O)O)NC(=O)[C@H](CO)NC(=O)[C@@H](NC(=O)[C@@H](N)CO)C(C)C)C(=O)N[C@@H](CCC(N)=O)C(=O)N[C@@H](CC(C)C)C(=O)N[C@@H](CCSC)C(=O)N[C@@H](Cc1cnc[nH]1)C(=O)N[C@@H](CC(N)=O)C(=O)N[C@@H](CC(C)C)C(=O)NCC(=O)N[C@@H](CCCCN)C(=O)N[C@@H](Cc1cnc[nH]1)C(=O)N[C@@H](CC(C)C)C(=O)N[C@@H](CC(N)=O)C(=O)N[C@@H](CO)C(=O)N[C@@H](CCSC)C(=O)N[C@@H](CCC(=O)O)C(=O)N[C@@H](CCCN=C(N)N)C(=O)N[C@H](C(=O)N[C@@H](CCC(=O)O)C(=O)N[C@@H](Cc1c[nH]c2ccccc12)C(=O)N[C@@H](CC(C)C)C(=O)N[C@@H](CCCN=C(N)N)C(=O)N[C@@H](CCCCN)C(=O)N[C@@H](CCCCN)C(=O)N[C@@H](CC(C)C)C(=O)N[C@@H](CCC(N)=O)C(=O)N[C@@H](CC(=O)O)C(=O)N[C@H](C(=O)N[C@@H](Cc1cnc[nH]1)C(=O)N[C@@H](CC(N)=O)C(=O)N[C@@H](Cc1ccccc1)C(=O)O)C(C)C)C(C)C [hPTH(1-34)]
- solubility in water (concentration): > 20%
